{
  "source": "patent US8513409B2",
  "about": "“Introverted CB[n] compounds” (University of Maryland, priority 2005, dated 2013)",
  "key": {"[1]": {"assay": "Solubility of CB[n] in water, aqueous MeOH, HCl and Na2SO4 solutions", "format": "physicochemical", "settings": "for solubility in 50% aqueous MeOH solution (v/v): 50% aqueous MeOH (v/v)", "experimental": "CB[5]. […] By washing the crude solids repeatedly with large volumes of water a mixture of CB[5] and CB[7] was isolated. […] The solubility of CB[7] is less than 4 mg/mL in this solution. By extracting the solid mixture of CB[5] and CB[7] with 50% aq. MeOH CB[5] is separated from CB[7].\nCB[8]. […] By washing the crude mixture of CB[6], CB[8], CB[5]@CB[10], introverted CB[6], and CB[8] with 3 M HCl CB[8] is isolated as an insoluble solid.\nIntroverted CB[6]. […] Na2SO4 which allows it to be isolated as an insoluble solid by washing and filtration.\nSubsequent purification. The separation of each component (CB[5], CB[6], CB[7], CB[8], and iCB[6]) from Crop 1 and Crop 2 was enabled due to their differential solubility in HCl solutions. • CB[5] and CB[7]. […] By washing the crude mixture of CB[6], Cb[8], and iCB[6] with 3.5 M HC1 it is possible to isolate Cb[8] as an insoluble solid. • iCB[6] and CB[6]. CB[6] and iCB[6] were separated by fractional crystallization from different concentration HC1 solutions. For example, the initial CB[6]/iCB[6] mixture was recrystallized from a minimum volume of conc. HC1. The filtrate is enriched in iCB[n]; adding the filtrate to MeOH gives the precipitate which is filtered and dried. The solid now enriched in iCB[6] is recrystallized from 17.5% HC1 which gives CB[6] as a solid and filtrate further enriched in iCB[6]. In this manner, the ratio of iCB[6];CB[6] is raised to ≈80:20. At this point, the mixture is dissolved in a minimum of conc. HC1. To this solution is added enough H2N(CH2)6NH2 to complex all of the CB[6] (≈25%). This solution is then diluted 5-fold with H20. The precipitate is isolated by centrifugation and washed several times with H2O which yields iCB[6] as a white solid in 2% overall yield."}, "[2]": {"settings": "conc. HCl 100° C., reported by Day and co-workers; cited from earlier work"}, "[3]": {"assay": "1H NMR competition of CB[6] and i-CB[6] (1:1) for guest 1", "format": "binding", "settings": "slight excess of 1 added to CB[6] and i-CB[6] (1:1)", "experimental": "(§1) FIG. 6 illustrates ^1HNMR spectra recorded for: a)) i-CB[6], CB[6] and 1 in a ratio of 1:1:2 (0.5M NaCl), and b) i-CB[7], 1 and 2 in a ratio of 1:1:1 (500 MHz, D2O), RT).\n(§2) Because of their smaller cavities and more open portals i-CB[6] and i-CB[7] bind most guest molecules less tightly than their CB[n] counterparts do. For example, when a light excess of 1 is added to a solution containing CB[6] and i-CB[6] Alkyl ammonium ions such as 2 are known to bind tightly to CB[6] with values of Ka in the μM range. In contrast, 2 bind less strongly to i-CB[6] […] Similarly, i-CB[7] retains the ability to bind to guests commonly bound to CB[7]1,8 (e.g. 1.2, and (ferrocenemethyl)trimethylammonium ion (3)) but with lower affinity and higher kinetic liability. The association constants (Ka) for the guests 1, 2, and 3 with i-CB[7] measured by isothermal titration calorimetry (ITC) are (9±1)×10^6 M^−1, (8.8±0.9)×10^5 M^−1, and (2.2±0.1)×10^6 M^−1, respectively, which are 2 to 6 order of magnitude lower than those with CB[7]."}, "[4]": {"assay": "Isothermal titration calorimetry of i-CB[7] with guest 2", "format": "binding", "settings": "ITC, water, 30° C.", "experimental": "as §2\n(§3) General. […] Melting points were measured on a Meltemp apparatus in open capillary tubes and are uncorrected. IR spectra were recorded on a Nicolet Magna or on a Perkin Elmer Spectrum GX FT-IR spectrophotometers as KBr pellets and are reported in cm^−1. NMR spectra were measured on a Bruker AM400 or on a Bruker DRX500 spectrometers operating at 400 or 500 MHz for ^1H and 100 or 125 MHz for ^13C. […] The formation constants for the inclusion of several guests in iCB[7] were determined by isothermal titration calorimetry using a VP-ITC instrument from MicroCal. […]"}, "[5]": {"assay": "1H NMR competition of guests 1 and 2 for i-CB[7]", "format": "binding", "settings": "1 and 2 in ratio 1:1:1", "excerpt": "as §1\nFor example, i-CB[7] binds aromatic guest 1 more strongly than linear aliphatic guest 2. […] Thus, the inverted glycoluril unit modulates guest binding affinity and rates of dissociation, both of which are of critical importance in the creation of CB[n] based molecular machines."}, "[6]": {"assay": "Isothermal titration calorimetry of i-CB[7] with guest 3", "format": "binding", "settings": "ITC, water, 30° C.", "experimental": "FIG. 23 is a thermogram (top) and binding isotherm (bottom) of (ferrocenemethyl) trimethyl ammonium in complexing with i-CB[7] at 303K.\nBecause of their smaller cavities and more open portals i-CB[6] and i-CB[7] bind most guest molecules less tightly than their CB[n] counterparts do. For example, when a light excess of 1 is added to a solution containing CB[6] and i-CB[6] Alkyl ammonium ions such as 2 are known to bind tightly to CB[6] with values of Ka in the μM range. In contrast, 2 bind less strongly to i-CB[6] […] The association constants (Ka) for the guests 1, 2, and 3 with i-CB[7] measured by isothermal titration calorimetry (ITC) are (9±1)×10^6 M^−1, (8.8±0.9)×10^5 M^−1, and (2.2±0.1)×10^6 M^−1, respectively, which are 2 to 6 order of magnitude lower than those with CB[7].\nas §3"}, "[7]": {"assay": "Stability of CB[n] and i-CB[n] on heating in acid (product resubmission)", "format": "physicochemical", "settings": "purified compound heated in conc. DCl", "excerpt": "The fact that the isomerization of methylene bridged glycoluril dimmers follows mechanism 3 is not only useful in the synthesis of our compounds, but is important for the tailored synthesis of CB[n] and its derivatives. For example, Day and co-workers have recently shown that heating purified CB[8] in conc. […] (Scheme 3). In contrast, pure CB[5], CB[6], and CB[7] are stable under these conditions. […] This type of reaction would likely follow a pathway related to mechanism 1. […] In aqueous acid, it is likely that H2O can compete with the internal N and O nucleophiles of mechanism 3 for the capture of 19 (Scheme 2), effectively forcing fragmentation of the methylene bridges by a variation of mechanism 1. In the absence of competing nucleophiles, under anhydrous acidic conditions, CB[n] (n>8) and derivatives display enhanced stability. This facilitates the preparation of higher CB[n] compounds in a controllable manner when using anhydrous acidic conditions where water-sensitive functional groups are present. If such groups are not present acidic aqueous conditions may be used.\nBy “anhydrous acidic conditions,” we mean that in initial attempts “standard conditions” (ClCH2CH2Cl, anh. PTSA, reflux) are used, and if solubility problems occur then neat anhydrous PTSA (m.p. 38° C.) and/or CH3SO3H may be used. Based on results, CB[8] is stable to these conditions as depicted in Scheme 3. […]"}, "[8]": {"assay": "Isothermal titration calorimetry of i-CB[7] with guest 1", "format": "binding", "settings": "ITC, water, 30° C.", "experimental": "as §2, §3"}},
  "data": [
    {"compound": "O=C1N2CN3C(=O)N4CN5C(=O)N6CN7C(=O)N8CN9C(=O)N%10CN1C1C2N2CN%11C(=O)N(CN%12C(=O)N(CN%13C(=O)N(CN%14C(=O)N(CN1C2=O)C%10C9%14)C8C7%13)C6C5%12)C4C3%11", "note": "(stereo not drawn) [CB[5]]", "values": [
      {"measurement": "solubility in 50% aqueous MeOH solution (v/v)", "setting": "[1]", "result": "about 33 mg/mL"},
      {"measurement": "solubility in water", "setting": "[1]", "result": "moderate solubility"},
      {"measurement": "stability on heating in conc. HCl", "setting": "[2]", "result": "stable"}
    ]},
    {"compound": "O=C1N2CN3C(=O)N4CN5C(=O)N6CN7C(=O)N8CN9C(=O)N%10CN%11C(=O)N%12CN1C1C2N2CN%13C(=O)N(CN%14C(=O)N(CN%15C(=O)N(CN%16C(=O)N(CN%17C(=O)N(CN1C2=O)C%12C%11%17)C%10C9%16)C8C7%15)C6C5%14)C4C3%13", "note": "(stereo not drawn) [CB[6]]", "values": [
      {"measurement": "share of host that forms a complex with guest 1", "setting": "[3]", "result": "almost all"},
      {"measurement": "solubility in 3 M HCl solution", "setting": "[1]; 3 M HCl", "result": "appreciable solubility"},
      {"measurement": "solubility in 3.5 M HCl solution", "setting": "[1]; 3.5 M HCl", "result": "appreciable solubility"},
      {"measurement": "stability on heating in conc. HCl", "setting": "[2]", "result": "stable"}
    ]},
    {"compound": "O=C1N2CN3C(=O)N4CN5C(=O)N6CN7C(=O)N8CN9C(=O)N%10CN%11C(=O)N%12CN%13C(=O)N%14CN1C1C2N2CN%15C(=O)N(CN%16C(=O)N(CN%17C(=O)N(CN%18C(=O)N(CN%19C(=O)N(CN%20C(=O)N(CN1C2=O)C%14C%13%20)C%12C%11%19)C%10C9%18)C8C7%17)C6C5%16)C4C3%15", "note": "(stereo not drawn) [CB[7]]", "values": [
      {"measurement": "solubility in 50% aqueous MeOH solution (v/v)", "setting": "[1]", "result": "less than 4 mg/mL"},
      {"measurement": "solubility in water", "setting": "[1]", "result": "moderate solubility"},
      {"measurement": "stability on heating in conc. HCl", "setting": "[2]", "result": "stable"}
    ]},
    {"compound": "i-CB[7]", "values": [
      {"measurement": "association constant (Ka) for guest 2", "setting": "[4]", "result": "(8.8±0.9)×10^5 M^−1"},
      {"measurement": "guest preference in presence of 1 equiv 1 and 2", "setting": "[5]", "result": "the majority of i-CB[7] forms a complex with 1"},
      {"measurement": "association constant (Ka) for guest 3", "setting": "[6]", "result": "(2.2±0.1)×10^6 M^−1"},
      {"measurement": "outcome of heating in conc. DCl", "setting": "[7]", "result": "a 4:1 mixture of CB[6], and CB[7] was obtained"},
      {"measurement": "association constant (Ka) for guest 1", "setting": "[8]", "result": "(9±1)×10^6 M^−1"}
    ]}
  ]
}
